Reference: article PMC4773869, “Influence of plasma-activated compounds on melanogenesis and tyrosinase activity” (Scientific Reports, 2016)

target: T1, mushroom tyrosinase (Agaricus bisporus, UniProt C7FF04); experiment: Circular dichroism analysis of the secondary structure of mushroom tyrosinase; settings: tyrosinase + 10 min plasma-treated compound, 0.1 mM; enzyme alone 7
Procedure: The structural changes in tyrosinase after incubation with ED and PAED were plotted in Fig. 5. […] We observed that the control tyrosinase enzyme has 16% α-helix, 33% β-sheets, 7% turn, and 44% random coil. After the interaction with 4a, the amount of α-helix changed to 15% and β-sheets changed to 35%. On the other hand, after the plasma treatment of 4a the amount of α-helix changed to 17% and β-sheets changed to 31%. While, after interacting with 4b, the amount of α-helix is 16.0%, β-sheets 29%, turn 10%, and random coil is 45.0%. However, plasma-activated 4b interacts differently with tyrosinase enzyme, showing 16% α-helix, 33% β-sheets, 6% turn, and 45% random coil. When 6a ED interacted with tyrosinase enzyme, we observed 20% α-helix, 25% β-sheets, 11.0% turn, and 44% random coil. However, 6a PAED interacts with tyrosinase enzyme, the α-helix changed to 19%, β-sheets 28%, turn 9%, and random coil 44%. […] To obtain further detail on the interaction of the ED with tyrosinase enzyme, we studied the molecular docking. For the CD spectroscopic studies[65][66][67] a J-815 spectrophotometer (Jasco, Japan) was used, equipped with a Peltier system that controlled the temperature. (1S)-(+)-10-camphorsulfonic acid (Aldrich, Milwaukee, WI) with a molar extinction coefficient of 34.5 M/cm at 285 nm and a 2.36 M/cm molar ellipticity (θ) at 295 nm was used for the CD calibrations. The samples were pre-equilibrated at the desired temperature for 15 min, and the scan speed was fixed for adaptative sampling (error F 0.01) with a response time of 1 sec and a 1 nm bandwidth. The secondary structure of the mushroom tyrosinase was monitored by using a 1.0 cm path length cuvette. The mushroom tyrosinase (0.2 mg/ml) was prepared in phosphate buffer (20 mM) at pH 6.8 for CD analysis. We used the 0.1 mM concentration of all derivatives in 1 ml buffer solution, with or without 10 min plasma treatment. All spectra were collected in triplicate from 200 to 250 nm and the background was corrected against the buffer (blank). The percentages of secondary structures of proteins were calculated using inbuilt Jasco software.
Target sequence in this assay (C7FF04 2-392): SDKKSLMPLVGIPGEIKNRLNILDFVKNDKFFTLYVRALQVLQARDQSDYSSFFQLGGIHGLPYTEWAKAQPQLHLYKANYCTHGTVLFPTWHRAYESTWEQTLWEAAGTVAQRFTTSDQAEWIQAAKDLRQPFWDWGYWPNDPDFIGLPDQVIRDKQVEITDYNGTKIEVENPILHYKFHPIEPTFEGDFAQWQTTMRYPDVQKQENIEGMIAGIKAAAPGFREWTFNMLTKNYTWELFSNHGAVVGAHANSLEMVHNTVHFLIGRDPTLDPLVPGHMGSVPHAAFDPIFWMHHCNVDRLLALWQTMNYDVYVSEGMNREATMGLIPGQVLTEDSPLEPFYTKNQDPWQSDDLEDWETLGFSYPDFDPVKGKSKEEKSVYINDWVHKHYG

Turn % of tyrosinase | Compound
6% | O=C(COC(=O)c1ccc(O)cc1)Oc1ccc(C(=O)/C=C/O)cc1OCO [Plasma treated 4b]
9% | C=CC(=O)c1ccc(OC(=O)COC(=O)/C=C/c2ccc(O)cc2)c(OC)c1 [Plasma treated 6a]

same assay, conditions: tyrosinase + 10 min plasma-treated compound, 0.1 mM; enzyme alone 16

α-helix % of tyrosinase | Compound
17% | C=CCc1ccc(OC(=O)COC(=O)c2cccc(O)c2)c(OC)c1 [4a, 2-[2-methoxy-4-(prop-2-en-1-yl)phenoxy]-2-oxoethyl 3-hydroxybenzoate]
16% | O=C(COC(=O)c1ccc(O)cc1)Oc1ccc(C(=O)/C=C/O)cc1OCO [Plasma treated 4b]
19% | C=CC(=O)c1ccc(OC(=O)COC(=O)/C=C/c2ccc(O)cc2)c(OC)c1 [Plasma treated 6a]

same assay, conditions: tyrosinase + 10 min plasma-treated compound, 0.1 mM; enzyme alone 33

β-sheet % of tyrosinase | Compound
31% | C=CCc1ccc(OC(=O)COC(=O)c2cccc(O)c2)c(OC)c1 [4a, 2-[2-methoxy-4-(prop-2-en-1-yl)phenoxy]-2-oxoethyl 3-hydroxybenzoate]
33% | O=C(COC(=O)c1ccc(O)cc1)Oc1ccc(C(=O)/C=C/O)cc1OCO [Plasma treated 4b]
28% | C=CC(=O)c1ccc(OC(=O)COC(=O)/C=C/c2ccc(O)cc2)c(OC)c1 [Plasma treated 6a]

same assay, conditions: tyrosinase + 10 min plasma-treated compound, 0.1 mM; enzyme alone 44

Random coil % of tyrosinase | Compound
45% | O=C(COC(=O)c1ccc(O)cc1)Oc1ccc(C(=O)/C=C/O)cc1OCO [Plasma treated 4b]
44% | C=CC(=O)c1ccc(OC(=O)COC(=O)/C=C/c2ccc(O)cc2)c(OC)c1 [Plasma treated 6a]

same assay, conditions: tyrosinase + as-synthesized compound (0 min plasma), 0.1 mM; enzyme alone 7

Turn % of tyrosinase | Compound
5% | C=CCc1ccc(OC(=O)COC(=O)c2cccc(O)c2)c(OC)c1 [4a, 2-[2-methoxy-4-(prop-2-en-1-yl)phenoxy]-2-oxoethyl 3-hydroxybenzoate]
4% | C=CCc1ccc(OC(=O)COC(=O)c2ccc(O)cc2O)c(OC)c1 [4c, 2-[2-methoxy-4-(prop-2-en-1-yl)phenoxy]-2-oxoethyl 2,4-dihydroxybenzoate]

same assay, conditions: tyrosinase + as-synthesized compound (0 min plasma), 0.1 mM; enzyme alone 16

α-helix % of tyrosinase | Compound
15% | C=CCc1ccc(OC(=O)COC(=O)c2cccc(O)c2)c(OC)c1 [4a, 2-[2-methoxy-4-(prop-2-en-1-yl)phenoxy]-2-oxoethyl 3-hydroxybenzoate]
16% | C=CCc1ccc(OC(=O)COC(=O)c2ccc(O)cc2O)c(OC)c1 [4c, 2-[2-methoxy-4-(prop-2-en-1-yl)phenoxy]-2-oxoethyl 2,4-dihydroxybenzoate]

same assay, conditions: tyrosinase + as-synthesized compound (0 min plasma), 0.1 mM; enzyme alone 33

β-sheet % of tyrosinase | Compound
35% | C=CCc1ccc(OC(=O)COC(=O)c2cccc(O)c2)c(OC)c1 [4a, 2-[2-methoxy-4-(prop-2-en-1-yl)phenoxy]-2-oxoethyl 3-hydroxybenzoate]
35% | C=CCc1ccc(OC(=O)COC(=O)c2ccc(O)cc2O)c(OC)c1 [4c, 2-[2-methoxy-4-(prop-2-en-1-yl)phenoxy]-2-oxoethyl 2,4-dihydroxybenzoate]

same assay, conditions: tyrosinase + as-synthesized compound (0 min plasma), 0.1 mM; enzyme alone 44

Random coil % of tyrosinase | Compound
45% | C=CCc1ccc(OC(=O)COC(=O)c2cccc(O)c2)c(OC)c1 [4a, 2-[2-methoxy-4-(prop-2-en-1-yl)phenoxy]-2-oxoethyl 3-hydroxybenzoate]
45% | C=CCc1ccc(OC(=O)COC(=O)c2ccc(O)cc2O)c(OC)c1 [4c, 2-[2-methoxy-4-(prop-2-en-1-yl)phenoxy]-2-oxoethyl 2,4-dihydroxybenzoate]

test system: B16F10 cells; experiment: Intracellular melanin content measurement; type: cell-based, murine; settings: 10 min plasma-treated; presence of α-MSH
Procedure: Melanoma (1.5 × 10^5) cells were seeded in cell culture plates and allowed to attach for 24 hr. Then each eugenol derivative was added and tested separately for melanin activation after 24 hr of incubation. After incubation, cells were detached using trypsin/EDTA and centrifuged at 1000 rpm for 5 min to collect the cell pellets. The cell pellets were solubilized in 1N NaOH at 60 °C for 1 hr. The melanin content was measured spectrophotometrically at 405 nm wavelength using a microplate reader (BioTek, synergy HT)[56]. […] Plasma-treated and non-plasma-treated ED (4b and 6a) were added to the cells, pre-incubated with or without α-MSH (100 nM) for a further 24 hr and melanin content was assayed as described above. Kojic acid can inhibit and α-MSH can stimulate the melanin in the cells, therefore we used them as negative and positive controls.

Compound | melanin synthesis, % of control (100%)
O=C(COC(=O)c1ccc(O)cc1)Oc1ccc(C(=O)/C=C/O)cc1OCO [Plasma treated 4b] | 188%

same assay, conditions: as-synthesized ED; no α-MSH; concentration not given

Compound | melanin, % of control (normalized to 100%)
C=CCc1ccc(OC(=O)COC(=O)c2cccc(O)c2)c(OC)c1 [4a, 2-[2-methoxy-4-(prop-2-en-1-yl)phenoxy]-2-oxoethyl 3-hydroxybenzoate] | 116%
C=CCc1ccc(OC(=O)COC(=O)c2ccc(O)cc2O)c(OC)c1 [4c, 2-[2-methoxy-4-(prop-2-en-1-yl)phenoxy]-2-oxoethyl 2,4-dihydroxybenzoate] | 117%

test system: not given; experiment: not given; settings: not given

melting point | Compound
70 to 72 °C | C=CCc1ccc(OC(=O)COC(=O)c2cccc(O)c2)c(OC)c1 [4a, 2-[2-methoxy-4-(prop-2-en-1-yl)phenoxy]-2-oxoethyl 3-hydroxybenzoate]
99 to 101 °C | C=CCc1ccc(OC(=O)COC(=O)c2ccc(O)cc2O)c(OC)c1 [4c, 2-[2-methoxy-4-(prop-2-en-1-yl)phenoxy]-2-oxoethyl 2,4-dihydroxybenzoate]

target: T1, mushroom tyrosinase; experiment: Mushroom tyrosinase inhibition assay (L-DOPA, dopachrome at 492 nm); type: biochemical; parameters: purchased Sigma Chemical Co. USA; settings: Con: as-synthesized, before plasma treatment; cell-free; mean ± SD; read-out: Tyrosinase inhibitory activity IC50 (converted)
Procedure: To determine the action of ED and PAED, we checked the mushroom tyrosinase inhibitory activity in a cell-free environment. […] Moreover, after plasma treatment for different time intervals, we observed that inhibition activity of 4a, 4b, 4d and 6a was improved more as compared to without treatment. […] However, we observed the highest relative improvement in IC50 value of compound 4b among all ED compounds at 10 min plasma treatment. […] Therefore, we used the 4b and 6a compounds for further investigations, based on the decrease in IC50 value to a global minimum of the experiment after plasma treatment.
The mushroom tyrosinase was used for in vitro bioassays as described previously with some modifications. Briefly, 140 μl of phosphate buffer (20 mM, pH 6.8), 20 μl of mushroom tyrosinase (30 U/ml), and 20 μl of the inhibitor solution were placed in the wells of a 96-well plate. After pre-incubation for 10 min at room temperature, 20 μl of L-DOPA (3,4-dihydroxyphenylalanine) (0.85 mM) was added and the plate was further incubated at 25 °C for 20 min. Subsequently the absorbance of dopachrome was measured at 492 nm using a micro plate reader (OPTI Max, Tunable). Kojic acid was used as a reference inhibitor. The extent of inhibition by the test compounds was expressed as the […] necessary to achieve 50% inhibition (IC50). Each concentration was analyzed in three independent experiments run in triplicate. The IC50 values were determined by the data analysis and graphing software, Origin.
Target sequence in this assay (C7FF04 1-392): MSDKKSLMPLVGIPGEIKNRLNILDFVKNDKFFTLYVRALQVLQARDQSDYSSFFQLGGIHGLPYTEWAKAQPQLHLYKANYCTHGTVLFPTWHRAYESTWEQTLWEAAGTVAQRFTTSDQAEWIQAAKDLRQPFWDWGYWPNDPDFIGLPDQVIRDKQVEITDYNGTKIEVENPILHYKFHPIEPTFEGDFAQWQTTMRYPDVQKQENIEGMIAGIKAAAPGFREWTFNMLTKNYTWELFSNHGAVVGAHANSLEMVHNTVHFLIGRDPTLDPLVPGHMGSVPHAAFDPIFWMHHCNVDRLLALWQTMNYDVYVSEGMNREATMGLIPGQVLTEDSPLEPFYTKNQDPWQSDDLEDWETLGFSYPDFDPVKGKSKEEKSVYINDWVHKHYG

IC50 | Compound
73 µM | C=CCc1ccc(OC(=O)COC(=O)c2cccc(O)c2)c(OC)c1 [4a, 2-[2-methoxy-4-(prop-2-en-1-yl)phenoxy]-2-oxoethyl 3-hydroxybenzoate]
41.9 µM | C=CCc1ccc(OC(=O)COC(=O)c2ccc(O)cc2O)c(OC)c1 [4c, 2-[2-methoxy-4-(prop-2-en-1-yl)phenoxy]-2-oxoethyl 2,4-dihydroxybenzoate]

same assay, conditions: compound after 3 min N2 APPJ plasma treatment; mean ± SD; read-out: Tyrosinase inhibitory activity IC50 (converted)

IC50 | Compound
70.1 µM | C=CCc1ccc(OC(=O)COC(=O)c2cccc(O)c2)c(OC)c1 [4a, 2-[2-methoxy-4-(prop-2-en-1-yl)phenoxy]-2-oxoethyl 3-hydroxybenzoate]
53 µM | C=CCc1ccc(OC(=O)COC(=O)c2ccc(O)cc2O)c(OC)c1 [4c, 2-[2-methoxy-4-(prop-2-en-1-yl)phenoxy]-2-oxoethyl 2,4-dihydroxybenzoate]

same assay, conditions: compound after 5 min N2 APPJ plasma treatment; mean ± SD; read-out: Tyrosinase inhibitory activity IC50 (converted)

IC50 | Compound
58.4 µM | C=CCc1ccc(OC(=O)COC(=O)c2cccc(O)c2)c(OC)c1 [4a, 2-[2-methoxy-4-(prop-2-en-1-yl)phenoxy]-2-oxoethyl 3-hydroxybenzoate]
67 µM | C=CCc1ccc(OC(=O)COC(=O)c2ccc(O)cc2O)c(OC)c1 [4c, 2-[2-methoxy-4-(prop-2-en-1-yl)phenoxy]-2-oxoethyl 2,4-dihydroxybenzoate]

same assay, conditions: compound after 10 min N2 APPJ plasma treatment; mean ± SD; read-out: Tyrosinase inhibitory activity IC50 (converted)

IC50 | Compound
49.7 µM | C=CCc1ccc(OC(=O)COC(=O)c2cccc(O)c2)c(OC)c1 [4a, 2-[2-methoxy-4-(prop-2-en-1-yl)phenoxy]-2-oxoethyl 3-hydroxybenzoate]
80.9 µM | C=CCc1ccc(OC(=O)COC(=O)c2ccc(O)cc2O)c(OC)c1 [4c, 2-[2-methoxy-4-(prop-2-en-1-yl)phenoxy]-2-oxoethyl 2,4-dihydroxybenzoate]
